Reference: ChEMBL document CHEMBL1148535, “Hexylitaconic acid: a new inhibitor of p53-HDM2 interaction isolated from a marine-derived fungus, Arthrinium sp” (Bioorg Med Chem Lett, 2006)
Active and inactive are the calls of the source. The calls are words filed in the database; no cut-off is given here.

biological target: T1, E3 ubiquitin-protein ligase Mdm2 (Homo sapiens, UniProt Q00987); test: Inhibition of p53-HDM2 interaction at 50 ug/ml
Target sequence in this assay (Q00987 whole entry, looked up): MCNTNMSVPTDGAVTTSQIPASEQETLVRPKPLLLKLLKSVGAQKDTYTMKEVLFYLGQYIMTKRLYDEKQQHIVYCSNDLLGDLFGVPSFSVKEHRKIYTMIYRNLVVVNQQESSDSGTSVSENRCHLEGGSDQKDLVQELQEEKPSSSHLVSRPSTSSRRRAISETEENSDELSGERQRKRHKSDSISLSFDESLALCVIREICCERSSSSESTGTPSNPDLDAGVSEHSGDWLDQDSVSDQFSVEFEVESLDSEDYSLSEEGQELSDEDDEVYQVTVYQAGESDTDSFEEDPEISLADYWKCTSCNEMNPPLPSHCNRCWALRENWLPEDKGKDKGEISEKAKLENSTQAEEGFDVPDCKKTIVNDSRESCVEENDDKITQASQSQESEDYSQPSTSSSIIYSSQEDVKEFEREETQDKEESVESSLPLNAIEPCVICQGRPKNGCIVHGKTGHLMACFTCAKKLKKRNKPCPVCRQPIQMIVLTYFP

Structure (SMILES) | Activity
C=C(C(=O)O)C(CCCCCC)C(=O)OC (stereo unspecified) | inactive
CCCCCCC(C(=O)O)C(C)C(=O)O (stereo unspecified) | inactive
C=C(CC(=O)O)C(=O)O | inactive
O=C(O)CCC(=O)O | inactive
CCCCCCC(C(=O)OC)C(C)C(=O)O (stereo unspecified) | inactive

biological target: T1, E3 ubiquitin-protein ligase Mdm2; test: Inhibition of p53-HDM2 interaction
Target sequence in this assay (Q00987 whole entry): as the sequence (Q00987 whole entry, looked up) above

Structure (SMILES) | IC50
C=C(C(=O)O)C(CCCCCC)C(=O)O (stereo unspecified) [HEXYLITACONIC ACID] | 233 µM
